Source: publication PMC9029994 (RSC Advances, 2021)

Molecular target: Sperm whale WT Mb (myoglobin, Mb) (Physeter macrocephalus, UniProt P02185, F44H/H65A)
Assay: biochemical

Sequence of Sperm whale WT Mb (myoglobin, Mb) (P02185 2-154 F44H/H65A): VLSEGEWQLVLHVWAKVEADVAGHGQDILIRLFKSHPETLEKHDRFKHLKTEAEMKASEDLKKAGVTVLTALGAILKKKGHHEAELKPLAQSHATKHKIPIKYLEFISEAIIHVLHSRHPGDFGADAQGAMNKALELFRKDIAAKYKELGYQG

Kd: 474 µM
Compound: CN(C)c1ccc(C(=C2C=CC(=[N+](C)C)C=C2)c2ccccc2)cc1 [MG, malachite green]
